In patent publication US9650423B2, “Long peptides of 22-45 amino acid residues that induce and/or enhance antigen specific immune responses” (priority 2000, dated 2017):
Like-named read-outs stand apart in the source and are kept apart here. Residues, ends and D or L forms follow the SMILES beside them. No end group written: not given here.

Columns and labels:
[1] = biological target: T1, HLA-DR1 (DRB*0101) (Homo sapiens, UniProt P01903+P01911, A100R/D57E/F55L/F60I/F76Y/I96L/L162R/M171V/P40L/Q125E/R42F/V115G/Y59C); experiment: biochemical; format: binding
T1 construct: endogenous in cells; host or cells: LG2.1 B-lymphoblastic cell line, homozygous for HLA-DR

[2] = biological target: HLA-DR3 (DRB*0301); experiment: HLA-DR-peptide binding assay; set-up: species or system human
[3] = biological target: HLA-DR4 (DRB*0401); experiment: HLA-DR-peptide binding assay; set-up: species or system human
[4] = biological target: HLA-DR2 (DRB1*0201); experiment: HLA-DR-peptide binding assay; set-up: species or system human
[5] = biological target: HLA-DR7 (DRB1*0701) (Homo sapiens, UniProt P01903+P01911, A100R/A102G/A103Q/D57E/D86V/E43K/F76Y/K127E/L162R/M171V/P40G/Q125H/Q99D/R33Q/R42Y/R54Q/S133A/S66F/T210M/V115G/Y107V/Y59L/Y89S); details: read-out: Binding DR7, IC50
[6] = system: HLA-DR 1, 2, 3, 4 and 7; experiment: HLA-DR-peptide binding assay, summary over the molecules tested; set-up: species or system human; details: E7 peptides tested on HLA-DR 1, 2, 3, 4 and 7
Protocol: The analysis of peptide binding to purified DR molecules was performed using N-terminally fluorescence-labelled standard peptides.

[7] = system: HPV16 E2-specific Th-clones; experiment: HPV16 E2-specific Th-clones: peptide recognition; format: cell-based, human; details: clones from long-term E2 peptide stimulated healthy donor PBMC
Protocol: Long-term HPV16 E2-specific T-cell cultures and Th-clones were established according to previously described procedures (van der Burg et al. 1999). Briefly, PBMC from healthy HLA-typed donors were stimulated in vitro with the following HPV16 E2 peptides (E2271-300+E2286-315, E2301-330+E2316-345, E2331-365). 15×10^6 PBMC were seeded in 25 cm^2 culture flasks (Nalge Nunc, USA) in 6 ml IMDM supplemented with 10% autologous serum. Peptides were added at a concentration of 5 μg/ml. At day 7.15×10^6 PBMC were added, together with fresh medium and peptides. At day 14 and 21 viable T cells were harvested from the cultures, counted and restimulated with an equal amount of autologous irradiated PBMC and peptide (5 μg/ml). T-cell growth factor (Biotest, Dreieich, Germany) was added 2 days after restimulation at a final concentration of 10%. The T-cell cultures were tested for peptide recognition by proliferation assay at day 28. Peptide-specific T-cell cultures were cloned by limiting dilution and T-cell clones were subsequently tested for the recognition of E2-peptide and -protein-pulsed APC.
Specificity of the Th clones was analysed as described previously (Van der Burg et al. 1999). […] For measurement of proliferation, cultures were pulsed with […] [^3H] thymidine (5 μCi/mM, Amersham, UK) per well for 18 hours. Plates were harvested with a Micro cell Harvester (Skatron, Norway). Filters were packed in plastic covers containing 10 ml of scintillation fluid and subsequently counted on a 1205 Betaplate counter (Wallac, Turku, Finland). HLA-class II blocking experiments were performed using murine monoclonal antibodies: anti-DQ SPV. L3, anti-DR B8. 11.2, and anti-DP B7/21. Supernatants of the proliferation assays were harvested 24 hrs after incubation and analysed for the presence of IFN-γ by ELISA (van der Burg et al., 1999).

[8] = HPV16-E7 22-mer peptides, >70 indicates undetectable binding, read-out: Binding DR3, IC50
[9] = HPV16-E7 22-mer peptides, >70 indicates undetectable binding, read-out: Binding DR4, IC50
[10] = HPV16-E7 22-mer peptides, >70 indicates undetectable binding, read-out: Binding DR2, IC50

Compound | IC50 ([1]; read-out: Binding DR1, IC50) | IC50 [2, 8] | IC50 [3, 9] | IC50 [4, 10] | IC50 [5] | recognition by E2-specific CD4+ Th clones and HLA restriction [7] | further results
CC[C@H](C)[C@H](NC(=O)[C@H](CC(=O)O)NC(=O)[C@@H](NC(=O)[C@H](Cc1c[nH]cn1)NC(=O)[C@@H](NC(=O)[C@H](CO)NC(=O)[C@H](CCC(N)=O)NC(=O)[C@@H](NC(=O)[C@H](CS)NC(=O)[C@H](CC(C)C)NC(=O)[C@H](CCCNC(=N)N)NC(=O)[C@H](CC(C)C)NC(=O)[C@@H](NC(=O)[C@H](CO)NC(=O)[C@H](CC(=O)O)NC(=O)[C@@H](N)CS)[C@@H](C)O)C(C)C)[C@@H](C)O)C(C)C)C(=O)N[C@@H](CCCNC(=N)N)C(=O)N[C@H](C(=O)N[C@@H](CC(C)C)C(=O)N[C@@H](CCC(=O)O)C(=O)N[C@@H](CC(=O)O)C(=O)N[C@@H](CC(C)C)C(=O)O)[C@@H](C)O [E7 61-82] (H-CDSTLRLCVQSTHVDIRTLEDL-OH; N-terminus and C-terminus assumed) | > 70 µM | 65 µM | > 70 µM | 15 µM | > 70 µM | – | –
CC[C@H](C)[C@H](NC(=O)[C@H](CC(N)=O)NC(=O)[C@H](Cc1ccc(O)cc1)NC(=O)[C@@H](N)Cc1c[nH]cn1)C(=O)N[C@H](C(=O)N[C@H](C(=O)N[C@@H](Cc1ccccc1)C(=O)N[C@@H](CS)C(=O)N[C@@H](CS)C(=O)N[C@@H](CCCCN)C(=O)N[C@@H](CS)C(=O)N[C@@H](CC(=O)O)C(=O)N[C@@H](CO)C(=O)N[C@H](C(=O)N[C@@H](CC(C)C)C(=O)N[C@@H](CCCNC(=N)N)C(=O)N[C@@H](CC(C)C)C(=O)N[C@@H](CS)C(=O)N[C@H](C(=O)N[C@@H](CCC(N)=O)C(=O)N[C@@H](CO)C(=O)N[C@H](C(=O)O)[C@@H](C)O)C(C)C)[C@@H](C)O)[C@@H](C)O)C(C)C [E7 51-72] (H-HYNIVTFCCKCDSTLRLCVQST-OH; N-terminus and C-terminus assumed) | – | 50 µM | > 70 µM | > 70 µM | – | – | HLA-DR molecules bound [6]: bound to DR1, 3 and 7
CC[C@H](C)[C@H](NC(=O)CNC(=O)[C@H](CC(C)C)NC(=O)[C@@H](NC(=O)CNC(=O)[C@H](CCSC)NC(=O)[C@H](CC(C)C)NC(=O)[C@H](CC(C)C)NC(=O)[C@H](CC(=O)O)NC(=O)[C@H](CCC(=O)O)NC(=O)[C@H](CC(C)C)NC(=O)[C@@H](NC(=O)[C@@H](N)CCCNC(=N)N)[C@@H](C)O)[C@@H](C)O)C(=O)N[C@H](C(=O)N[C@@H](CS)C(=O)N1CCC[C@H]1C(=O)N[C@H](C(=O)N[C@@H](CS)C(=O)N[C@@H](CO)C(=O)N[C@@H](CCC(N)=O)C(=O)N[C@@H](CCCCN)C(=O)N1CCC[C@H]1C(=O)O)[C@@H](C)CC)C(C)C [E7 77-98] (H-RTLEDLLMGTLGIVCPICSQKP-OH; N-terminus and C-terminus assumed) | – | > 70 µM | > 70 µM | 22 µM | – | – | IC50 ([1]; read-out: Binding DR1, IC50, HPV16-E7 22-mer peptides, >70 indicates undetectable binding): 46 µM; HLA-DR molecules bound [6]: bound to DR1, 2 and DR7; IC50 ([5]; HPV16-E7 22-mer peptides, >70 indicates undetectable binding): 0.9 µM
CSCC[C@H](NC(=O)[C@H](Cc1ccc(O)cc1)NC(=O)[C@H](CCC(=O)O)NC(=O)[C@H](Cc1c[nH]cn1)NC(=O)[C@H](CC(C)C)NC(=O)[C@@H](NC(=O)[C@@H]1CCCN1C(=O)[C@@H](NC(=O)[C@H](CC(=O)O)NC(=O)CNC(=O)[C@H](Cc1c[nH]cn1)NC(=O)[C@@H](N)CCSC)[C@@H](C)O)[C@@H](C)O)C(=O)N[C@@H](CC(C)C)C(=O)N[C@@H](CC(=O)O)C(=O)N[C@@H](CC(C)C)C(=O)N[C@@H](CCC(N)=O)C(=O)N1CCC[C@H]1C(=O)N[C@@H](CCC(=O)O)C(=O)N[C@H](C(=O)N[C@H](C(=O)N[C@@H](CC(=O)O)C(=O)N[C@@H](CC(C)C)C(=O)O)[C@@H](C)O)[C@@H](C)O [E7 1-22] | > 70 µM | 0.8 µM | 30 µM | 10 µM | 7 µM | – | HLA-DR molecules bound [6]: bound to HLA DR2, 3, 4 and 7
E2 351-365: Th epitope peptide, amino acids 351-365 of HPV16 E2 (KIPKTITVSTGFMSI) | – | – | – | – | – | in a DR1-restricted manner | –
LRYRFKKHCTLYTAVSSTWHWTGHNVKHKS [E2 301-330] | – | – | – | – | – | both Th-clones recognized | IC50 ([1]; HPV16-E2 peptides, >70 represents undetectable binding, read-out: Binding affinity DR1, IC50): 6 µM; IC50 ([2]; HPV16-E2 peptides, >70 represents undetectable binding, read-out: Binding affinity DR3, IC50): > 70 µM; IC50 ([3]; HPV16-E2 peptides, >70 represents undetectable binding, read-out: Binding affinity DR4, IC50): 10 µM; IC50 ([4]; HPV16-E2 peptides, >70 represents undetectable binding, read-out: Binding affinity DR2, IC50): 8 µM
E2 311-325: Th epitope peptide, amino acids 311-325 of HPV16 E2 (LYTAVSSTWHWTGHN) | – | – | – | – | – | in the context of HLA-DQ6 (1) | –
E2 51-70: Th epitope peptide, amino acids 51-70 of HPV16 E2 (FKHINHQVVPTLAVSKNKAL) | – | – | – | – | – | in a HLA-DR4 restricted manner | –
E2 61-75: Th epitope peptide, amino acids 61-75 of HPV16 E2 (TLAVSKNKALQAIEL; UniProt P03120 61-75, looked up, fragment) | – | – | – | – | – | reacted against | –
CSCC[C@H](NC(=O)[C@@H](N)Cc1ccc(O)cc1)C(=O)N[C@@H](CC(C)C)C(=O)N[C@@H](CC(=O)O)C(=O)N[C@@H](CC(C)C)C(=O)N[C@@H](CCC(N)=O)C(=O)N1CCC[C@H]1C(=O)N[C@@H](CCC(=O)O)C(=O)N[C@H](C(=O)N[C@H](C(=O)N[C@@H](CC(=O)O)C(=O)N[C@@H](CC(C)C)C(=O)N[C@@H](Cc1ccc(O)cc1)C(=O)N[C@@H](CS)C(=O)N[C@@H](Cc1ccc(O)cc1)C(=O)N[C@@H](CCC(=O)O)C(=O)N[C@@H](CCC(N)=O)C(=O)N[C@@H](CC(C)C)C(=O)N[C@@H](CC(N)=O)C(=O)N[C@@H](CC(=O)O)C(=O)N[C@@H](CO)C(=O)N[C@@H](CO)C(=O)O)[C@@H](C)O)[C@@H](C)O [E7 11-32] | > 70 µM | 50 µM | > 70 µM | > 70 µM | > 70 µM | – | –
DLYCYEQLNDSSEEEDEIDGPA [E7 21-42] | > 70 µM | > 70 µM | > 70 µM | 12 µM | > 70 µM | – | –
